In article PMC12212259, “Evaluation of AlphaFold modeling for elucidation of nanobody–peptide epitope interactions” (The Journal of Biological Chemistry, 2025):
Peptide text beside a SMILES is read from it.

How the values were obtained:
Nb6E [1] = conditions: cited from earlier work
[2] = system: Nb6E (A2AR-Nb6E-ALFA) on HEK293 cells; test: Flow cytometry competition binding against FAM-6E-C14 on HEK293 cells; parameters: species or system human; conditions: peptides 10-0.01 μM vs 10 nM FAM-6E-C14, 30 m, median AF647 fluorescence
Experimental: Human embryonic kidney 293 cells stably expressing a cell surface protein fused with Nb6E (A2AR-Nb6E-ALFA, described previously ([25])) were cultured in Dulbecco's modified Eagle's media containing 10% fetal bovine serum (Thermo; #A5256801) and 1X penicillin–streptomycin (Thermo; #15140-122). Binding assays were performed as described previously ([25]). Briefly, cells were suspended in 2% bovine serum albumin (BSA) in 1X PBS (w/v) (BSA-PBS) with variable concentrations of unlabeled variant 6E peptides (10–0.01 μM) and 10 nM fluorescein-labeled 6E peptide (FAM-6E-C14) for 30 m followed by 2x washing with BSA-PBS, and subsequent staining with antifluorescein Ab conjugated with AlexaFluor647 (1.5:1000 dilution in BSA-PBS; Jackson ImmunoResearch; #200-602-037). Cells were incubated again for 30 m, pelleted, washed, and analyzed by flow cytometry on a CytoFlex flow cytometer (Beckman Coulter). Cell labeling intensity was monitored in the FL4-APC channel. Live cells were identified and gated based on forward scatter–side scatter profile. […] Median fluorescence intensity for cell counts observed in the APC channel for each sample was calculated from histograms. Median fluorescence intensity values obtained from technical replicates of the same sample were averaged and plotted against the corresponding concentration of the variant 6E peptide.

Nb6E [3] = test: SPR analysis of 6E variant peptides binding to immobilized Nb6E-biotin
Experimental: (§1) SPR biosensor analysis was conducted on a Biacore T200 instrument (Cytiva) using a Series S Sensor Chip SA (streptavidin; Cytiva, #29104992) to determine Nb–tag binding affinity. All binding analyses were done in degassed SPR running buffer (1X PBS at pH 7.4 plus 0.05% P20). Biotinylated Nbs (Nb6E or Nb127), produced by sortagging reaction, was captured on SA chip where streptavidin is covalently coupled to dextran matrix. Biotinylated Nb (1 μM) was immobilized on flow cell via biotin–streptavidin interaction to reach a target response value of approximately 2000 response units. A separate flow cell was capped with only SPR running buffer to use as a surface control for nonspecific binding.
(§2) Analyte samples (127-tag peptide or mutant-6E peptides) were prepared as serial dilutions in SPR running buffer. Analyte was flowed over the chip at 50 μl/min with a contact time of 60 s and a dissociation time of 120 s. A duplicate injection of one concentration and a buffer injection (blank) were used for assessing chip surface performance and double referencing, respectively. […] Kinetic constants and KD values (M) were calculated from local fittings using 1:1 kinetics binding model for peptide (analyte) binding to Nb–biotin on the BIAevaluation software (Cytiva).

Nb127 = test: SPR analysis of 127-tag binding to immobilized Nb127-biotin; conditions: Biacore T200, Nb127-biotin on streptavidin chip, 127 tag 400-6.25 nM, PBS pH 7.4 + 0.05% P20, 1:1 kinetics binding model
Experimental: as §1, §2

rank of binding affinities (SPR) (Nb6E [3]) | Kd (Nb127) | SMILES | experimental binding to Nb6E (earlier work) (Nb6E [1]) | rank of binding affinities (competition binding assay) [2]
6E-M9 > 6E-WT > 6E-F9 | – | CC[C@H](C)[C@H](NC(=O)[C@H](CCC(N)=O)NC(=O)[C@H](CCCNC(=N)N)NC(=O)[C@H](C)NC(=O)[C@H](CC(C)C)NC(=O)[C@H](CCC(=O)O)NC(=O)[C@H](CCCCN)NC(=O)[C@H](C)NC(=O)[C@H](CCC(=O)O)NC(=O)[C@H](CCC(N)=O)NC(=O)[C@H](CC(=O)O)NC(=O)[C@H](C)NC(=O)[C@@H](N)CCC(N)=O)C(=O)N[C@@H](CO)C(N)=O [6E-L9 (WT)] (H-QADQEAKELARQIS-NH2) | substantially higher affinity than the 6E-A9 variant | 6E-M9 > 6E-WT > 6E-F9
6E-M9 > 6E-WT > 6E-F9 | – | CC[C@H](C)[C@H](NC(=O)[C@H](CCC(N)=O)NC(=O)[C@H](CCCNC(=N)N)NC(=O)[C@H](C)NC(=O)[C@H](CCSC)NC(=O)[C@H](CCC(=O)O)NC(=O)[C@H](CCCCN)NC(=O)[C@H](C)NC(=O)[C@H](CCC(=O)O)NC(=O)[C@H](CCC(N)=O)NC(=O)[C@H](CC(=O)O)NC(=O)[C@H](C)NC(=O)[C@H](CCC(N)=O)NC(=O)CNC(=O)CNC(=O)CN)C(=O)N[C@@H](CO)C(N)=O [6E-M9] (H-GGGQADQEAKEMARQIS-NH2) | – | 6E-M9 > 6E-WT > 6E-F9
– | 14 nM | NCCCC[C@H](NC(=O)[C@H](Cc1c[nH]c2ccccc12)NC(=O)[C@H](Cc1ccccc1)NC(=O)[C@H](CC(=O)O)NC(=O)[C@H](CCC(=O)O)NC(=O)[C@H](Cc1ccccc1)NC(=O)[C@@H](N)CO)C(=O)NCC(=O)N[C@@H](CCC(=O)O)C(=O)N[C@@H](CC(=O)O)C(N)=O [127-tag] (H-SFEDFWKGED-NH2) | – | –
